Assay results: patent publication US20100267561A1, “HERBICIDAL PYRIDAZINONE DERIVATIVES” (priority 2007, published 2010)
Read-outs that look alike come from different tables or passages of the source.

Columns and labels:
Assay type in all cases: in vivo
[1] = system: barnyardgrass (Echinochloa crus-galli); assay: Test A pre-/postemergence plant response; settings: Echinochloa crus-galli, 240 h, read-out: Plant response rating, Barnyardgrass; for pest or weed control at 125 g/ha: 125 g ai/ha; for pest or weed control at 500 g/ha: 500 g ai/ha
Outline: (§1)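 Ratings run 0–100 (100 = complete control), assigned visually against untreated controls roughly 10 days after treatment in a greenhouse. Compounds, formulated in non-phytotoxic solvent containing surfactant, were applied as a soil-directed preemergence spray and concurrently postemergence to one- to two-leaf plants 2–10 cm tall.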

[2] = system: corn (Zea mays); assay: Test A pre-/postemergence plant response; settings: Zea mays, 240 h; for Corn plant response rating (crop injury, 0 = no effect, 100 = complete kill) at 125 g/ha: 125 g ai/ha; for Corn plant response rating (crop injury, 0 = no effect, 100 = complete kill) at 500 g/ha: 500 g ai/ha
Outline: as §1

[3] = system: giant foxtail (Setaria faberi); assay: Test A pre-/postemergence plant response; settings: Setaria faberi, 240 h, read-out: Plant response rating, Foxtail, Giant; for pest or weed control at 125 g/ha: 125 g ai/ha; for pest or weed control at 500 g/ha: 500 g ai/ha
Outline: as §1

[4] = system: large crabgrass (Digitaria sanguinalis); assay: Test A pre-/postemergence plant response; settings: Digitaria sanguinalis, 240 h, read-out: Plant response rating, Crabgrass, Large; for pest or weed control at 125 g/ha: 125 g ai/ha; for pest or weed control at 500 g/ha: 500 g ai/ha
Outline: as §1

[5] = system: morningglory (Ipomoea coccinea); assay: Test A pre-/postemergence plant response
Outline: as §1

[6] = system: pigweed (Amaranthus retroflexus); assay: Test A pre-/postemergence plant response; settings: Amaranthus retroflexus, 240 h, read-out: Plant response rating, Pigweed; for pest or weed control at 125 g/ha: 125 g ai/ha; for pest or weed control at 500 g/ha: 500 g ai/ha
Outline: as §1

[7] = system: velvetleaf (Abutilon theophrasti); assay: Test A pre-/postemergence plant response
Outline: as §1

[8] = system: wheat (Triticum aestivum); assay: Test A pre-/postemergence plant response; settings: Triticum aestivum, 240 h, read-out: Plant response rating, Wheat; for plant injury at 125 g/ha: 125 g ai/ha; for plant injury at 500 g/ha: 500 g ai/ha
Outline: as §1

[9] = system: barnyardgrass (Echinochloa crus-galli); assay: Test B flooded paddy test plant response; settings: Echinochloa crus-galli, read-out: Plant response rating, Barnyardgrass
Outline: (§2)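 Paddy-water application to 2-leaf plants in pots held under 3 cm of flooding; response is a 0–100 visual control rating against controls after 13 to 15 days, and a dash marks a missing result.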

[10] = system: ducksalad (Heteranthera limosa); assay: Test B flooded paddy test plant response; settings: Heteranthera limosa, read-out: Plant response rating, Ducksalad
Outline: as §2

[11] = system: rice (Oryza sativa); assay: Test B flooded paddy test plant response; settings: Oryza sativa, read-out: Plant response rating, Rice
Outline: as §2

[12] = system: umbrella sedge (Cyperus difformis); assay: Test B flooded paddy test plant response; settings: Cyperus difformis, read-out: Plant response rating, Sedge, Umbrella
Outline: as §2

[13] = post-emergence, Postemergence, 0 to 100 scale, 0 no effect, 100 complete control
[14] = pre-emergence, Preemergence, 0 to 100 scale (0 no effect, 100 complete control)
[15] = Postemergence, 125 g ai/ha, 0 to 100 scale, 0 no effect, 100 complete control
[16] = Postemergence, 500 g ai/ha, 0 to 100 scale, 0 no effect, 100 complete control
[17] = Preemergence, 125 g ai/ha, 0 to 100 scale (0 no effect, 100 complete control)
[18] = Preemergence, 500 g ai/ha, 0 to 100 scale (0 no effect, 100 complete control)
[19] = Flood (flooded paddy test), 62 g ai/ha, scale 0 to 100, 0 no effect, 100 complete control
[20] = Flood (flooded paddy test), 125 g ai/ha, scale 0 to 100, 0 no effect, 100 complete control
[21] = Flood (flooded paddy test), 250 g ai/ha, scale 0 to 100, 0 no effect, 100 complete control
[22] = Flood, 31 g ai/ha, scale 0 to 100

CCc1c(C)c(-c2ccc(Cl)cc2)nn1-c1c(O)cnn(C)c1=O [Compound 26, 4-[3-(4-chlorophenyl)-5-ethyl-4-methyl-1H-pyrazol-1-yl]-5-hydroxy-2-methyl-3(2H)-pyridazinone]
50%: Corn plant response rating (crop injury, 0 = no effect, 100 = complete kill) at 125 g/ha [2, 14] | pest or weed control at 62 g/ha [10, 19]
80%: pest or weed control at 125 g/ha [4, 13]
70%: plant injury at 500 g/ha [8, 14] | pest or weed control at 250 g/ha [10, 21]
40%: pest or weed control at 31 g/ha [10, 22]
20: Plant response rating, Morningglory [5, 16] | Plant response rating, Velvetleaf [7, 16]
90%: Corn plant response rating (crop injury, 0 = no effect, 100 = complete kill) at 500 g/ha [2, 14] | pest or weed control at 125 g/ha [3, 13] | pest or weed control at 125 g/ha [4, 14]
0%: pest or weed control at 125 g/ha [6, 13] | pest or weed control at 500 g/ha [6, 13] | pest or weed control at 125 g/ha [6, 14] | pest or weed control at 500 g/ha [6, 14] | plant injury at 125 g/ha [8, 13] | pest or weed control at 62 g/ha [9, 19] | pest or weed control at 125 g/ha [9, 20] | pest or weed control at 31 g/ha [9, 22] | plant injury at 62 g/ha [11, 19] | plant injury at 125 g/ha [11, 20] | plant injury at 250 g/ha [11, 21] | plant injury at 31 g/ha [11, 22] | pest or weed control at 62 g/ha [12, 19] | pest or weed control at 125 g/ha [12, 20] | pest or weed control at 31 g/ha [12, 22]
60%: Corn plant response rating (crop injury, 0 = no effect, 100 = complete kill) at 125 g/ha [2, 13] | plant injury at 500 g/ha [8, 13]
0: Plant response rating, Morningglory [5, 15] | Plant response rating, Morningglory [5, 17] | Plant response rating, Morningglory [5, 18] | Plant response rating, Velvetleaf [7, 15] | Plant response rating, Velvetleaf [7, 17] | Plant response rating, Velvetleaf [7, 18]
20%: plant injury at 125 g/ha [8, 14] | pest or weed control at 250 g/ha [9, 21]
75%: pest or weed control at 250 g/ha [12, 21]
100%: pest or weed control at 125 g/ha [1, 13] | pest or weed control at 500 g/ha [1, 13] | pest or weed control at 125 g/ha [1, 14] | pest or weed control at 500 g/ha [1, 14] | Corn plant response rating (crop injury, 0 = no effect, 100 = complete kill) at 500 g/ha [2, 13] | pest or weed control at 500 g/ha [3, 13] | pest or weed control at 125 g/ha [3, 14] | pest or weed control at 500 g/ha [3, 14] | pest or weed control at 500 g/ha [4, 13] | pest or weed control at 500 g/ha [4, 14]
